Data on 16 molecules can be found in ChEMBL document CHEMBL5360666, “Inhibition Profiles of Some Novel Sulfonamide-Incorporated α-Aminophosphonates on Human Carbonic Anhydrases” (ACS Med Chem Lett, 2023).

SMILES strings stand for the structures.

Sequence of Carbonic anhydrase 1 (P00915 whole entry): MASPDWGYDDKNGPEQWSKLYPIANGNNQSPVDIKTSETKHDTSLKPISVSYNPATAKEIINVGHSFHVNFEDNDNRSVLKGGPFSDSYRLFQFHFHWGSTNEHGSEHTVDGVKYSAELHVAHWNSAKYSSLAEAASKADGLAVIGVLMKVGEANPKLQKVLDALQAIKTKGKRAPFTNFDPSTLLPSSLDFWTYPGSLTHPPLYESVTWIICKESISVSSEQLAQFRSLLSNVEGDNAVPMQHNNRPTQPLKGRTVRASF

The first test has as its target Carbonic anhydrase 1 (Homo sapiens, UniProt P00915). Briefly: Inhibition of human carbonic anhydrase 1 assessed as inhibition constant incubated for 1 hr prior to testing by phenol red based stopped-flow CO2 hydration assay.
One may read the Ki as the equilibrium dissociation constant of an inhibitor or competing ligand from its target. For the molecule `COc1ccc(CNc2ccc(S(N)(=O)=O)cc2)cc1`, the inhibition constant Ki was more than 50000 nM.

In a further test the target is Carbonic anhydrase 9 (Homo sapiens, UniProt Q16790). Briefly: Inhibition of human carbonic anhydrase 9 assessed as inhibition constant incubated for 1 hr prior to testing by phenol red based stopped-flow CO2 hydration assay.
Take `COc1ccc(CNc2ccc(S(N)(=O)=O)cc2)cc1`: the Ki is 883 nM.

As to `CCOP(=O)(OCC)C(Nc1ccc(S(N)(=O)=O)cc1)c1ccc(F)cc1` (stereo not drawn), the Ki amounted to 91.6 nM.

With `CCOP(=O)(OCC)C(Nc1ccc(S(N)(=O)=O)cc1)c1ccc(Cl)cc1` (stereo not drawn), the Ki is 142 nM.

Regarding `CCOP(=O)(OCC)C(Nc1ccc(S(N)(=O)=O)cc1)c1cccc(F)c1` (stereo not drawn), the inhibition constant (Ki) stood at 39.1 nM.

In the case of `CCOP(=O)(OCC)C(Nc1ccc(S(N)(=O)=O)cc1)c1ccc(SC)cc1` (stereo not drawn), the Ki is 80.2 nM.

Take `CCOP(=O)(OCC)C(Nc1ccc(S(N)(=O)=O)cc1)c1ccc(OC)c(OC)c1` (stereo not drawn): the Ki came out at 118 nM.

In the case of `CCOP(=O)(OCC)C(Nc1ccc(S(N)(=O)=O)cc1)c1ccc(C)cc1` (stereo not drawn), the Ki was determined as 147 nM.

As for `CCOP(=O)(OCC)C(Nc1ccc(S(N)(=O)=O)cc1)c1c(Br)cccc1OC` (stereo not drawn), the Ki was 346 nM.

Consider `CCOP(=O)(OCC)C(Nc1ccc(S(N)(=O)=O)cc1)c1ccc(Br)cc1` (stereo not drawn), for which the Ki was determined as 154 nM.

Regarding `CCOP(=O)(OCC)C(Nc1ccc(S(N)(=O)=O)cc1)c1cc(OC)c(OC)cc1OC` (stereo not drawn), the Ki is 249 nM.

For the molecule `CCOP(=O)(OCC)C(Nc1ccc(S(N)(=O)=O)cc1)c1cc(OC)ccc1OC` (stereo not drawn), the Ki was 470 nM.

Take `CCOP(=O)(OCC)C(Nc1ccc(S(N)(=O)=O)cc1)c1ccc(-c2ccccc2)cc1` (stereo not drawn): the Ki turned out to be 225 nM.

In the case of `CCOP(=O)(OCC)C(Nc1ccc(S(N)(=O)=O)cc1)c1ccccc1F` (stereo not drawn), the Ki worked out at 26.7 nM.

Take `CCOP(=O)(OCC)C(Nc1ccc(S(N)(=O)=O)cc1)c1ccc(OC)cc1` (stereo not drawn): the inhibition constant Ki worked out at 140 nM.

Turning to `CCOP(=O)(OCC)C(Nc1ccc(S(N)(=O)=O)cc1)c1cccc(Br)c1` (stereo not drawn), the Ki stood at 61.3 nM.

As to `CCOP(=O)(OCC)C(Nc1ccc(S(N)(=O)=O)cc1)c1ccccc1[N+](=O)[O-]` (stereo not drawn), the Ki amounted to 293 nM.

The target in the next test is Carbonic anhydrase 12 (Homo sapiens, UniProt O43570). The test is described as follows: Inhibition of human carbonic anhydrase 12 assessed as inhibition constant incubated for 1 hr prior to testing by phenol red based stopped-flow CO2 hydration assay.
Sequence of Carbonic anhydrase 12 (O43570 whole entry): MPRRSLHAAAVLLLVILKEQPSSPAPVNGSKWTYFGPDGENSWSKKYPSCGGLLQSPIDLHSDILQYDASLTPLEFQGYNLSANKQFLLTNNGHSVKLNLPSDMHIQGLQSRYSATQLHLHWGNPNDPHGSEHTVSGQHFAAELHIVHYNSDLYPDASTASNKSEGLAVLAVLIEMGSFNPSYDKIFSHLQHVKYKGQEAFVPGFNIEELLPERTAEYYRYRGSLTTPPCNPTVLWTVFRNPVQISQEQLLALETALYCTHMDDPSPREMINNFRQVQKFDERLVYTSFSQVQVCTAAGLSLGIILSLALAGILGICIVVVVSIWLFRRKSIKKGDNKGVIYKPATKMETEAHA
Take `COc1ccc(CNc2ccc(S(N)(=O)=O)cc2)cc1`: the Ki came to 11.2 nM.
